Earlier results in patent US20150202321A1, “COMPOSITIONS COMPRISING CHITOSAN-DRUG CONJUGATES AND METHODS OF MAKING AND USING THE SAME” (NEWGEN BIOPHARMA CORP., priority 2012, published 2015).
Where a name gives a salt, the structure may show the parent alone. Read-outs that look alike come from different tables or passages of the source. Values belong to the molecule of their own block, whether it stands above or below them.

How the values were obtained:
[1] = not given; remark: listed apart in the source
[2] = oral

bioavailability (intravenous administration): 100% | oral bioavailability (co-administered with cyclosporine): 90%±44% | oral bioavailability (on its own): 8%±6%
SMILES: CC(=O)O[C@@]12CO[C@@H]1C[C@H](O)[C@@]1(C)C(=O)[C@H](O)C3=C(C)[C@@H](OC(=O)[C@H](O)[C@@H](NC(=O)OC(C)(C)C)c4ccccc4)C[C@@](O)([C@@H](OC(=O)c4ccccc4)[C@H]21)C3(C)C [docetaxel]

AUC following evening or morning drug administration ([1]; evening versus morning): does not differ | absolute bioavailability ([1]; man): approximately 20% | elimination half life ([1]; man): ~19 h
SMILES: CC(C)c1nc(N(C)S(C)(=O)=O)nc(-c2ccc(F)cc2)c1/C=C/[C@@H](O)C[C@@H](O)CC(=O)O [rosuvastatin]

systemic availability for HMG-CoA reductase activity [2]: approximately 30%
SMILES: CC(C)c1c(C(=O)Nc2ccccc2)c(-c2ccccc2)c(-c2ccc(F)cc2)n1CC[C@@H](O)C[C@@H](O)CC(=O)O [AT, [R—(R/,R/)]-2-(4-fluorophenyl)-b,d-dihydroxy-5-(1-methylethyl)-3-phenyl-4-[(phenylamino)carbonyl]-1H-pyrrole-1-heptanoic acid, calcium salt (2:1) trihydrate]
